Values quoted from earlier work, collected in US20190151262A1, “USE OF N-ACETYLCYSTEINE AMIDE FOR DECREASING INTRACRANIAL PRESSURE” (priority 2013, published 2019).

Test system: intra-cranial pressure
Details: previously tried anti-oxidant; Thomale et al. Intensive Care Med. 32:149-155 (2006)

Question: For CC(=O)N[C@@H](CS)C(=O)O [NAC, n-acetylcysteine], which “decrease of intra-cranial pressure” value is on record?
Answer: no success
